Experiments:
BxPC3-luc cells = assay: In vitro blocking study; type: cell-based; conditions: inhibitor 1, 2 or 3 at 10 µM, 10 min pretreatment
Description: Blocking studies using 1, 2, and 3 were performed (Fig. 6). Pretreatment of an excess amount of 1 or 2 decreased uptakes of [^77Br]2 in BxPC3-luc cells. The uptake of [^77Br]3 was inhibited by a pretreatment using 1 or 3 in the same way.
Figure 6 In vitro blocking studies of (a) [^77Br]2 and (b) [^77Br]3 in BxPC3-luc and MCF7 cells. Data were presented as mean ± SD for three samples. Significance was determined using a one-way ANOVA followed by Dunnett’s post hoc test (^*p < 0.001, vs control [^77Br]2 or [^77Br]3).
For in vitro blocking experiment, inhibitor (1, 2, or 3 with final concentration 10 µM) in 1 mL of medium without FBS was added to wells containing 2 × 10^5 cells/well. After 10 min incubation, [^77Br]2 or [^77Br]3 (3.7 kBq/well) in 1 mL of medium without FBS was added to each well. Radioactivity and protein concentration in the cells were determined by the same method above-mentioned.

[1] = Biodistribution in ddY mice; type: in vivo; conditions: i.v. co-injection
Description: In this study, to minimize both the number of mice consumed in the experiment and the potential for experimental errors, we co-injected radiobrominated and radioiodinated compounds into mice[30],[31]. High radioactivity in the liver, small intestine, and large intestine was observed.
Mice were intravenously injected via the tail with 100 µL of saline solution of [^77Br]2 and [^125I]4 or [^77Br]3 and [^125I]5 (74 kBq, respectively), containing 10% ethanol and 1% tween-80. The ddY mice were sacrificed at 10 min, 1, 4, and 24 h postinjection. Meanwhile, tumor-bearing mice were sacrificed at 1 h postinjection.
(§1) Tissues in mice were resected and weighed. The radioactivity of the tissues was counted by a gamma counter and counts were corrected for background radiation. The data were expressed as percent injection dose per gram tissue (%ID/g).

BxPC3-luc tumor = assay: In vivo blocking study in tumor-bearing mice; design: species or system BALB/c nu/nu mice; conditions: 1 h postinjection
Description: The tumor uptake of both the control and blocking groups was 1.61 ± 0.24 and 0.96 ± 0.20% ID/g, respectively. Thus, the figures are shown as not only % ID/g but also as tumor-to-blood ratio.
Figure 7 (a) Tumor uptake and (b) tumor/blood uptake ratios of [^77Br]2 and [^125I]4 at 1 h postinjection with 1 (40 mg/kg) (blocking group) or no treatment control group. Data were presented as means ± SD for three or four mice. Significance was determined using an unpaired Student’s t-test (^*p < 0.05, ^**p < 0.01).
For in vivo blocking studies, the tumor-bearing mice were intraperitoneally injected with 200 µL of 1 (40 mg/kg in 15% ethanol and 85% water) 1 h before intravenous injection of 100 µL of saline solution containing [^77Br]2 and [^125I]4 or [^77Br]3 and [^125I]5 (74 kBq, respectively), 1% tween-80 and 10% ethanol. At 1 h postinjection of radiotracers, the mice were sacrificed.
as §1

## COCCOc1ccc2c(c1)ncn2-c1ccc2c([77Br])ccc(N3CCC(N)CC3)c2n1 [[^77Br]2, [^77Br]1-{5-Bromo-2-[5-(2-methoxyethoxy)-1H-benzo[d]imidazol-1-yl]quinoline-8-yl}piperidin-4-amine]
BxPC3-luc cells
  Uptake in BxPC3-luc cells after pretreatment with excess inhibitor: decreased
[1]; 10 min
  Radioactivity in Blood: 0.99 (0.03) %injected dose/gram tissue
  Radioactivity in Bone: 2.81 (1.06) %injected dose/gram tissue
  Radioactivity in Brain: 0.12 (0.01) %injected dose/gram tissue
  Radioactivity in Heart: 4.41 (0.27) %injected dose/gram tissue
  Radioactivity in Kidney: 15.61 (1.32) %injected dose/gram tissue
  Radioactivity in Large intestine: 0.99 (0.10) %injected dose/gram tissue
  Radioactivity in Liver: 12.49 (0.64) %injected dose/gram tissue
  Radioactivity in Lung: 10.92 (0.55) %injected dose/gram tissue
  Radioactivity in Muscle: 2.24 (0.18) %injected dose/gram tissue
  Radioactivity in Pancreas: 4.18 (0.38) %injected dose/gram tissue
  Radioactivity in Small intestine: 8.58 (2.18) %injected dose/gram tissue
  Radioactivity in Spleen: 5.39 (0.40) %injected dose/gram tissue
  Radioactivity in Stomach: 1.74 (0.15) %injected dose /organ
[1]; 1 h
  Radioactivity in Blood: 0.28 (0.06) %injected dose/gram tissue
  Radioactivity in Bone: 1.15 (0.15) %injected dose/gram tissue
  Radioactivity in Brain: 0.10 (0.01) %injected dose/gram tissue
  Radioactivity in Heart: 1.15 (0.17) %injected dose/gram tissue
  Radioactivity in Kidney: 10.12 (3.49) %injected dose/gram tissue
  Radioactivity in Large intestine: 2.69 (0.65) %injected dose/gram tissue
  Radioactivity in Liver: 4.26 (1.37) %injected dose/gram tissue
  Radioactivity in Lung: 4.32 (0.84) %injected dose/gram tissue
  Radioactivity in Muscle: 0.92 (0.04) %injected dose/gram tissue
  Radioactivity in Pancreas: 2.98 (0.75) %injected dose/gram tissue
  Radioactivity in Small intestine: 29.51 (7.92) %injected dose/gram tissue
  Radioactivity in Spleen: 1.59 (0.28) %injected dose/gram tissue
  Radioactivity in Stomach: 1.62 (0.55) %injected dose /organ
[1]; 4 h
  Radioactivity in Blood: 0.20 (0.03) %injected dose/gram tissue
  Radioactivity in Bone: 1.50 (1.27) %injected dose/gram tissue
  Radioactivity in Brain: 0.09 (0.00) %injected dose/gram tissue
  Radioactivity in Heart: 0.58 (0.13) %injected dose/gram tissue
  Radioactivity in Kidney: 4.33 (0.75) %injected dose/gram tissue
  Radioactivity in Large intestine: 53.70 (8.89) %injected dose/gram tissue
  Radioactivity in Liver: 3.44 (0.98) %injected dose/gram tissue
  Radioactivity in Lung: 2.71 (1.06) %injected dose/gram tissue
  Radioactivity in Muscle: 0.44 (0.07) %injected dose/gram tissue
  Radioactivity in Pancreas: 1.63 (0.19) %injected dose/gram tissue
  Radioactivity in Small intestine: 4.76 (0.89) %injected dose/gram tissue
  Radioactivity in Spleen: 0.69 (0.24) %injected dose/gram tissue
  Radioactivity in Stomach: 0.81 (0.21) %injected dose /organ
[1]; 24 h
  Radioactivity in Blood: 0.12 (0.02) %injected dose/gram tissue
  Radioactivity in Bone: 0.55 (0.10) %injected dose/gram tissue
  Radioactivity in Brain: 0.07 (0.00) %injected dose/gram tissue
  Radioactivity in Heart: 0.29 (0.03) %injected dose/gram tissue
  Radioactivity in Kidney: 0.21 (0.05) %injected dose/gram tissue
  Radioactivity in Large intestine: 0.18 (0.03) %injected dose/gram tissue
  Radioactivity in Liver: 0.29 (0.08) %injected dose/gram tissue
  Radioactivity in Lung: 0.29 (0.05) %injected dose/gram tissue
  Radioactivity in Muscle: 0.22 (0.02) %injected dose/gram tissue
  Radioactivity in Pancreas: 0.41 (0.34) %injected dose/gram tissue
  Radioactivity in Small intestine: 0.07 (0.01) %injected dose/gram tissue
  Radioactivity in Spleen: 0.66 (0.77) %injected dose/gram tissue
  Radioactivity in Stomach: 0.11 (0.01) %injected dose /organ
BxPC3-luc tumor; pretreatment with 1 (40 mg/kg)
  Tumor-to-blood ratio, blocking group vs control: significantly reduced
BxPC3-luc tumor; pretreatment with 1 (40 mg/kg, intraperitoneal, 1 h before)
  Tumor uptake, blocking group: 0.96 ± 0.20 % ID/g

## COCCOc1ccc2c(c1)ncn2-c1ccc2cccc(N3CCC(NC(=O)c4cccc([77Br])c4)CC3)c2n1 [[^77Br]3, [^77Br]-N-3-bromobenzoyl-1-{2-[5-(2-methoxyethoxy)-1H-benzo[d]imidazol-1-yl]quinolin-8-yl}-piperidin-4-amine]
BxPC3-luc cells
  Uptake in BxPC3-luc cells after pretreatment with excess inhibitor: inhibited
[1]; 10 min
  Radioactivity in Blood: 1.68 (0.07) %injected dose/gram tissue
  Radioactivity in Bone: 1.88 (0.15) %injected dose/gram tissue
  Radioactivity in Brain: 0.43 (0.02) %injected dose/gram tissue
  Radioactivity in Heart: 2.70 (0.24) %injected dose/gram tissue
  Radioactivity in Kidney: 5.21 (0.53) %injected dose/gram tissue
  Radioactivity in Large intestine: 0.88 (0.08) %injected dose/gram tissue
  Radioactivity in Liver: 25.80 (2.54) %injected dose/gram tissue
  Radioactivity in Lung: 3.08 (0.65) %injected dose/gram tissue
  Radioactivity in Muscle: 1.28 (0.19) %injected dose/gram tissue
  Radioactivity in Pancreas: 2.61 (0.20) %injected dose/gram tissue
  Radioactivity in Small intestine: 3.28 (0.32) %injected dose/gram tissue
  Radioactivity in Spleen: 3.05 (1.14) %injected dose/gram tissue
  Radioactivity in Stomach: 1.31 (0.22) %injected dose /organ
[1]; 1 h
  Radioactivity in Blood: 0.65 (0.05) %injected dose/gram tissue
  Radioactivity in Bone: 1.60 (0.27) %injected dose/gram tissue
  Radioactivity in Brain: 0.22 (0.05) %injected dose/gram tissue
  Radioactivity in Heart: 1.14 (0.09) %injected dose/gram tissue
  Radioactivity in Kidney: 2.03 (0.33) %injected dose/gram tissue
  Radioactivity in Large intestine: 2.23 (0.75) %injected dose/gram tissue
  Radioactivity in Liver: 7.59 (0.76) %injected dose/gram tissue
  Radioactivity in Lung: 1.18 (0.10) %injected dose/gram tissue
  Radioactivity in Muscle: 0.91 (0.45) %injected dose/gram tissue
  Radioactivity in Pancreas: 1.24 (0.16) %injected dose/gram tissue
  Radioactivity in Small intestine: 14.30 (0.23) %injected dose/gram tissue
  Radioactivity in Spleen: 1.47 (0.20) %injected dose/gram tissue
  Radioactivity in Stomach: 1.10 (0.24) %injected dose /organ
[1]; 4 h
  Radioactivity in Blood: 0.25 (0.04) %injected dose/gram tissue
  Radioactivity in Bone: 1.32 (0.12) %injected dose/gram tissue
  Radioactivity in Brain: 0.19 (0.01) %injected dose/gram tissue
  Radioactivity in Heart: 0.65 (0.05) %injected dose/gram tissue
  Radioactivity in Kidney: 0.65 (0.15) %injected dose/gram tissue
  Radioactivity in Large intestine: 28.99 (2.21) %injected dose/gram tissue
  Radioactivity in Liver: 2.19 (1.38) %injected dose/gram tissue
  Radioactivity in Lung: 0.45 (0.07) %injected dose/gram tissue
  Radioactivity in Muscle: 0.57 (0.24) %injected dose/gram tissue
  Radioactivity in Pancreas: 0.68 (0.10) %injected dose/gram tissue
  Radioactivity in Small intestine: 4.50 (2.02) %injected dose/gram tissue
  Radioactivity in Spleen: 0.88 (0.08) %injected dose/gram tissue
  Radioactivity in Stomach: 0.59 (0.26) %injected dose /organ
[1]; 24 h
  Radioactivity in Blood: 0.39 (0.05) %injected dose/gram tissue
  Radioactivity in Bone: 1.32 (0.17) %injected dose/gram tissue
  Radioactivity in Brain: 0.20 (0.02) %injected dose/gram tissue
  Radioactivity in Heart: 0.72 (0.11) %injected dose/gram tissue
  Radioactivity in Kidney: 0.37 (0.05) %injected dose/gram tissue
  Radioactivity in Large intestine: 0.18 (0.00) %injected dose/gram tissue
  Radioactivity in Liver: 0.18 (0.04) %injected dose/gram tissue
  Radioactivity in Lung: 0.56 (0.07) %injected dose/gram tissue
  Radioactivity in Muscle: 0.54 (0.04) %injected dose/gram tissue
  Radioactivity in Pancreas: 0.68 (0.03) %injected dose/gram tissue
  Radioactivity in Small intestine: 0.18 (0.05) %injected dose/gram tissue
  Radioactivity in Spleen: 0.72 (0.24) %injected dose/gram tissue
  Radioactivity in Stomach: 0.35 (0.06) %injected dose /organ

Reference: paper PMC6039436, “Radiobrominated benzimidazole-quinoline derivatives as Platelet-derived growth factor receptor beta (PDGFRβ) imaging probes” (Scientific Reports, 2018)
